From ChEMBL document CHEMBL1141785, “Cimipronidine, a cyclic guanidine alkaloid from Cimicifuga racemosa” (J Nat Prod, 2005) come the findings set out here.

The target in the assay is 5-hydroxytryptamine receptor 7 (Homo sapiens) (UniProt P34969). Put plainly: Binding affinity to 5HT7 receptor.

The structures appear in SMILES notation. The source made the active and inactive calls. The calls are words filed in the database; no cut-off is given here.

Chain of 5-hydroxytryptamine receptor 7 (Homo sapiens) (P34969 whole entry): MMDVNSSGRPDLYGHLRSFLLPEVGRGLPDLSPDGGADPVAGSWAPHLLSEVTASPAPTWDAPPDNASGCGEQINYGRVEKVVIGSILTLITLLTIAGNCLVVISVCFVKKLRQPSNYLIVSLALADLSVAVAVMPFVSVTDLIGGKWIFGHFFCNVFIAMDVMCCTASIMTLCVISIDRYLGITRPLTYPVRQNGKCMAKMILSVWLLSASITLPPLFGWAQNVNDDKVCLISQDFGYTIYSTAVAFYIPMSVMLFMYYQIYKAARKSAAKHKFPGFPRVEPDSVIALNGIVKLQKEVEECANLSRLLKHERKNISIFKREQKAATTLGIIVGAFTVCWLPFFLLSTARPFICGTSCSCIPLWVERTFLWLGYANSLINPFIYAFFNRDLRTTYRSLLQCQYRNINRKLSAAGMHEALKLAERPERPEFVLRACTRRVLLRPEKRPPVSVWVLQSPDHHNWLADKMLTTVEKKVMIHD

Consider `N=C(N)N1CCCC1CC(=O)O` (configuration not stated), for which the outcome was Active.

As for `O=C(/C=C/c1ccc(O)c(O)c1)O[C@H](C(=O)O)[C@](O)(Cc1ccc(O)c(O)c1)C(=O)O`, the result was Active.
